Assay results as given in patent publication US9206139B2, “Aggrecanase inhibitors” (Eli Lilly and Company, priority 2012, dated 2015).

Key:
MMP9 = MMP9 (Homo sapiens (Human), UniProt P14780); test: In vitro fluorescence assay of MMP9 activity; format: biochemical
From the text: (§1) A continuous assay is used in which the substrate is a synthetic peptide containing a fluorescent group (7-methoxycoumarin, Mca), which is quenched by energy transfer to a 2,4-dinitrophenyl group. The substrate is the peptide Mca-PQGL-(3-[2,4-dinitrophenyl]-L-2,3-diaminopropionyl)-AR-OH. When the peptide is cleaved by MMP a large increase in fluorescence is observed. The source of the enzyme for this assay is full-length, recombinant, human pro-MMP-2 expressed in Chinese Hamster Ovary (CHO) cells that is subsequently activated by an organomercurial compound, 4-aminophenyl mercuric acetate (APMA). APMA is removed through a desalting column (MMP-2 Calbiochem® catalog number PF023). The assay buffer consists of 100 mM Tris-HCl (pH 7.5), 100 mM NaCl, 10 mM CaCl2 and 10 μM human serum albumin Each well of the 96-well plates consists of a 100 μL reaction mixture consisting of assay buffer, MMP (final concentration of 0.2 nM, prepared by diluting in assay buffer), and varied concentrations of inhibitor (prepared by serially diluting a given inhibitor in DMSO in a 96-well polypropylene plate using a 10 point or 11 point dilution scheme). The enzymatic reactions are initiated by adding the substrate to a final concentration of 20 μM. The final DMSO concentration in the assay is 1.0%. The plate is incubated for 2-4 hours at room temperature and substrate cleavage is determined at room temperature with a fluorescence plate reader (excitation filter 320 and emission filter 436) on a LJL Analyst® or a Wallac Envision®.
(§2) The data is analyzed by using ActivityBase® software programs vs. 5.3 using a 4 parameter fit model equation 205 from which relative IC50's are generated. Maximum signal is calculated from wells untreated by inhibitor but having enzyme, substrate and 1.0% DMSO. Minimum signal is calculated from wells having buffer only (no enzyme), substrate, and 1.0% DMSO.
(§3) Essentially the same procedure is used for the remaining MMP assays as the MMP-2 assay, above, or as known in the art. For example, for MMP-14, the enzyme source is MMP-14 (MT1-MMP) catalytic domain produced by activation of a recombinant soluble proform of the enzyme purified from the periplasm. It consists of amino acid residues Tyr^89 to Gly^265 of mature human MT1-MMP (Calbiochem® catalog number 475935). The final concentration of each well is 0.5 nM instead of 0.2 nM as in MMP-2 assay.

[1] = target: MMP-14 (MT1-MMP) catalytic domain (Homo sapiens (Human), UniProt P50281); test: In vitro fluorescence assay of MMP-14 activity; format: biochemical; conditions: read-out: MMP14 IC50
From the text: as §1, §2, §3

MMP7 = MMP7 (Homo sapiens (Human), UniProt P09237); test: In vitro fluorescence assay of MMP7 activity; format: biochemical
Sequence of MMP7 (P09237 95-267, species assumed): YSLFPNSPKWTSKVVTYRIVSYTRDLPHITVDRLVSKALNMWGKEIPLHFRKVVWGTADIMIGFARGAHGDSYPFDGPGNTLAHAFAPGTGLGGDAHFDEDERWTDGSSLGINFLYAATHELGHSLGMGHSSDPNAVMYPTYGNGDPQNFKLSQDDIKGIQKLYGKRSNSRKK
From the text: as §1, §2, §3

[2] = system: aggrecanase-cleaved fragments of aggrecan (NITEGE) in synovial lavage; test: MIA injection PD model in rats; format: in vivo, Lewis rats; conditions: twice a day, rat
Procedure: MIA Injection PD Model in Rats
The assay as described in Swearingen et al., Osteoarthritis and Cartilage 18 (2010) 1159-1166, may be employed. MIA (Sigma, catalog #I2512, sodium salt) is prepared fresh on the day of use at 3 mg in 50 ul sterile 0.9% saline. 7-8-week-old male Lewis rats are anesthetized and injected intra-articularly with MIA into the right knee (to induce endogenous aggrecanase activity and the release of aggrecan fragments into the synovial fluid) and saline in the left (contralateral) knee on day 0. […] The synovial lavage is assayed for aggrecanase-cleaved fragments of aggrecan using the NITEGE sandwich ELISA. The amount of aggrecan fragments present in the synovial lavage is determined based on a standard curve generated with aggrecanase-digested rat aggrecan. Statistical analysis is performed using Dunnett's test. Sandwich ELISA assay: For the NITEGE ELISA, the a-NITEGE monoclonal antibody is immobilized on white high binding ELISA plates (Nunc) overnight at 4 C. Following blocking, rat synovial fluid lavage samples are added to the plate and fragments with a C-terminal NITEGE sequence are captured. The captured fragments are detected using the HRP-conjugated a-HABR monoclonal antibody. The ELISA signal is measured using the Supersignal ELISA femto maximum sensitivity substrate (Pierce) and read on a Victor luminometer. The amount of aggrecan fragments present in the sample is determined based on a standard curve generated with aggrecanase-digested rat chondrosarcoma aggrecan (850 mg/ml stock diluted in antibody dilution buffer).

MMP12 = MMP12 (Homo sapiens (Human), UniProt P39900); test: In vitro fluorescence assay of MMP12 activity; format: biochemical
Sequence of MMP12 (P39900 106-470, species assumed): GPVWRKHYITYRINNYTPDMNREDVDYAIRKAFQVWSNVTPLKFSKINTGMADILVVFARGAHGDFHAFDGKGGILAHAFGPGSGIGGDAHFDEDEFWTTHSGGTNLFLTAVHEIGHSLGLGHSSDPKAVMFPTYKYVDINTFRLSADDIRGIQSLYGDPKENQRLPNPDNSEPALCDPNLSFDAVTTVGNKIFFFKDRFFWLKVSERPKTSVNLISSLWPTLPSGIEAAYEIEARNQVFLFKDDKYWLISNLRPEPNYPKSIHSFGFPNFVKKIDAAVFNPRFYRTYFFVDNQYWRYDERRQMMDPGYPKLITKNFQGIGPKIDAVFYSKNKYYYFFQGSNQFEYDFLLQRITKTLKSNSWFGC
From the text: as §1, §2, §3

MMP8 = MMP8 (Homo sapiens (Human), UniProt P22894); test: In vitro fluorescence assay of MMP8 activity; format: biochemical
Sequence of MMP8 (P22894 101-467, species assumed): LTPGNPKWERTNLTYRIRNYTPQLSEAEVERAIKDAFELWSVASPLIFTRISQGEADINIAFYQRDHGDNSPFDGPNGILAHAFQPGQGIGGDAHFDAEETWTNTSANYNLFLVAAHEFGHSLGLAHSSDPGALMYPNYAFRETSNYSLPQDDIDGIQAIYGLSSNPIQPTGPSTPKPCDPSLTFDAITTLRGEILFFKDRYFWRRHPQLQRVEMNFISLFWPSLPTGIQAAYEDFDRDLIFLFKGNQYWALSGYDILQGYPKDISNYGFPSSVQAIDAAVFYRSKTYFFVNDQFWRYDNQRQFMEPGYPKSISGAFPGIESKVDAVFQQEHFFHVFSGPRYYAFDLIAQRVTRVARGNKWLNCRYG
From the text: as §1, §2, §3

MMP13 = MMP13 (Homo sapiens (Human), UniProt P45452); test: In vitro fluorescence assay of MMP13 activity; format: biochemical
Procedure: A continuous assay is used in which the substrate is a synthetic peptide containing a fluorescent group (7-methoxycoumarin, Mca), which is quenched by energy transfer to a 2,4-dinitrophenyl group. The substrate is the peptide Mca-PQGL-(3-[2,4-dinitrophenyl]-L-2,3-diaminopropionyl)-AR-OH. […] APMA is removed through a desalting column (MMP-2 Calbiochem® catalog number PF023). The assay buffer consists of 100 mM Tris-HCl (pH 7.5), 100 mM NaCl, 10 mM CaCl2 and 10 μM human serum albumin Each well of the 96-well plates consists of a 100 μL reaction mixture consisting of assay buffer, MMP (final concentration of 0.2 nM, prepared by diluting in assay buffer), and varied concentrations of inhibitor (prepared by serially diluting a given inhibitor in DMSO in a 96-well polypropylene plate using a 10 point or 11 point dilution scheme). The enzymatic reactions are initiated by adding the substrate to a final concentration of 20 μM. The final DMSO concentration in the assay is 1.0%.
as §2, §3

MMP-2 = MMP-2 (Homo sapiens (Human), UniProt P08253); test: In vitro fluorescence assay of MMP-2 activity; format: biochemical; conditions: read-out: MMP2 IC50
Sequence of MMP-2 (P08253 110-660): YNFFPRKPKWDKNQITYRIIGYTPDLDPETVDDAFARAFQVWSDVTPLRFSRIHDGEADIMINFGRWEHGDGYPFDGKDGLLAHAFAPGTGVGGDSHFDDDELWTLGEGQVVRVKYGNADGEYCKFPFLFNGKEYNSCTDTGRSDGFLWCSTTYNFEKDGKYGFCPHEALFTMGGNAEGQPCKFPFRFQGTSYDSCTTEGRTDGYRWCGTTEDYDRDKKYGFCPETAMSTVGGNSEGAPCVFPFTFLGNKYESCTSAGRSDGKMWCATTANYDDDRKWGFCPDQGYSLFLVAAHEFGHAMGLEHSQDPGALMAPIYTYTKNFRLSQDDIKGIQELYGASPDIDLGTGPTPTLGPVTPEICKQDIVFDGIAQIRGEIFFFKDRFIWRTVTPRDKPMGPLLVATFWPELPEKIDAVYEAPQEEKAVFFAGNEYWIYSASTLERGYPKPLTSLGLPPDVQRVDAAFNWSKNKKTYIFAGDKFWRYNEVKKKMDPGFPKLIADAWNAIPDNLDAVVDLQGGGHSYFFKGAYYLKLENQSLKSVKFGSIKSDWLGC
From the text: In Vitro Fluorescence Assay of MMP-2 Activity
as §1, §2

MMP3 = MMP3 (Homo sapiens (Human), UniProt P08254); test: In vitro fluorescence assay of MMP3 activity; format: biochemical
Sequence of MMP3 (P08254 100-477, species assumed): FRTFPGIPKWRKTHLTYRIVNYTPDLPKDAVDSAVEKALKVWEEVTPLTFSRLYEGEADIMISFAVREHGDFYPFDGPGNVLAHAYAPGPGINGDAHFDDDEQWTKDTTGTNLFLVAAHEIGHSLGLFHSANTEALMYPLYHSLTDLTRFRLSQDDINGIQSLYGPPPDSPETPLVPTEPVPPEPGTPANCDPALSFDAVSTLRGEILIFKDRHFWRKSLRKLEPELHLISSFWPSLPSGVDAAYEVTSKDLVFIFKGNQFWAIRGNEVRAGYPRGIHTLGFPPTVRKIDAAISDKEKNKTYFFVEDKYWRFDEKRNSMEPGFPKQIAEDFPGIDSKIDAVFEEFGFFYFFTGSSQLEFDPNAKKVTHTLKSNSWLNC
From the text: as §1, §2, §3

ADAMTS-4 = ADAMTS-4 (Homo sapiens (Human), UniProt O75173); test: ADAMTS-4 AlphaScreen assay; format: biochemical; conditions: buffer
Sequence of ADAMTS-4 (O75173 213-837, species assumed): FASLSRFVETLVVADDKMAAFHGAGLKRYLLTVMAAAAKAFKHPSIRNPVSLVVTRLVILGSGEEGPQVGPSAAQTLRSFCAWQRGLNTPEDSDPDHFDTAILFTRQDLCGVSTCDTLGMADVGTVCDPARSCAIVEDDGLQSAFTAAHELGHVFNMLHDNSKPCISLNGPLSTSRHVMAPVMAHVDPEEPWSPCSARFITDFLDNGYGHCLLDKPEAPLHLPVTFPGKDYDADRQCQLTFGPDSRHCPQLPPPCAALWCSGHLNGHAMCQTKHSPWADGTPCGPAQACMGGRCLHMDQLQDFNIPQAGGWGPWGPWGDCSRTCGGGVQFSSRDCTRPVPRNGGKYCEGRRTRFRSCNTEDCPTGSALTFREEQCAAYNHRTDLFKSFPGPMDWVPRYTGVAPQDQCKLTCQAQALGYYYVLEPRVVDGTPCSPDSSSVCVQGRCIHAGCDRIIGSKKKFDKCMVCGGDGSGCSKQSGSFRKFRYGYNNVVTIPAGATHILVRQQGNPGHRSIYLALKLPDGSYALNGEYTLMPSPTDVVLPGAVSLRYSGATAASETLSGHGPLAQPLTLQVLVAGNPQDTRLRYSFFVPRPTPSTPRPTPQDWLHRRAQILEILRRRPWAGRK
Procedure: ADAMTS-4 and ADAMTS-5 AlphaScreen Assay:
(§4) The plate is covered with aluminum foil tape and the binding is allowed to incubate overnight. The plate is then read on an AlphaScreen Fusion Alpha reader from Perkin Elmer. Data is analyzed using ActivityBase™ software (IDBS Alameda, Calif.). A similar assay is used with purified dog ADAMTS-4 enzyme.

MMP1 = MMP1 (Homo sapiens (Human), UniProt P03956); test: In vitro fluorescence assay of MMP1 activity; format: biochemical
Sequence of MMP1 (P03956 100-469, species assumed): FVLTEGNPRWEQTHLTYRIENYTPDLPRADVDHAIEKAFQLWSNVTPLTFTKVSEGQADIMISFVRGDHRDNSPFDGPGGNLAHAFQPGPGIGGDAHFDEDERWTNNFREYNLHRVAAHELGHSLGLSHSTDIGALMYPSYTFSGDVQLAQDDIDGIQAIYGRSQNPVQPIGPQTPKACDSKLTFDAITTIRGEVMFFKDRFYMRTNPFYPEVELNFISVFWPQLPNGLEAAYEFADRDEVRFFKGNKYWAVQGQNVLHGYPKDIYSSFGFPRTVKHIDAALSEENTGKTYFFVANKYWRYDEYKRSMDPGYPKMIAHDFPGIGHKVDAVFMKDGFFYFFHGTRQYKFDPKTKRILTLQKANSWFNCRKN
From the text: as §1, §2, §3

dog ADAMTS-4 [3] = target: T1, dog ADAMTS-4 (Canis lupus familiaris, UniProt A0A8I3Q3A2); test: Dog ADAMTS-4 AlphaScreen assay; format: biochemical; conditions: purified dog ADAMTS-4 enzyme
T1 sequence (A0A8I3Q3A2 1-992): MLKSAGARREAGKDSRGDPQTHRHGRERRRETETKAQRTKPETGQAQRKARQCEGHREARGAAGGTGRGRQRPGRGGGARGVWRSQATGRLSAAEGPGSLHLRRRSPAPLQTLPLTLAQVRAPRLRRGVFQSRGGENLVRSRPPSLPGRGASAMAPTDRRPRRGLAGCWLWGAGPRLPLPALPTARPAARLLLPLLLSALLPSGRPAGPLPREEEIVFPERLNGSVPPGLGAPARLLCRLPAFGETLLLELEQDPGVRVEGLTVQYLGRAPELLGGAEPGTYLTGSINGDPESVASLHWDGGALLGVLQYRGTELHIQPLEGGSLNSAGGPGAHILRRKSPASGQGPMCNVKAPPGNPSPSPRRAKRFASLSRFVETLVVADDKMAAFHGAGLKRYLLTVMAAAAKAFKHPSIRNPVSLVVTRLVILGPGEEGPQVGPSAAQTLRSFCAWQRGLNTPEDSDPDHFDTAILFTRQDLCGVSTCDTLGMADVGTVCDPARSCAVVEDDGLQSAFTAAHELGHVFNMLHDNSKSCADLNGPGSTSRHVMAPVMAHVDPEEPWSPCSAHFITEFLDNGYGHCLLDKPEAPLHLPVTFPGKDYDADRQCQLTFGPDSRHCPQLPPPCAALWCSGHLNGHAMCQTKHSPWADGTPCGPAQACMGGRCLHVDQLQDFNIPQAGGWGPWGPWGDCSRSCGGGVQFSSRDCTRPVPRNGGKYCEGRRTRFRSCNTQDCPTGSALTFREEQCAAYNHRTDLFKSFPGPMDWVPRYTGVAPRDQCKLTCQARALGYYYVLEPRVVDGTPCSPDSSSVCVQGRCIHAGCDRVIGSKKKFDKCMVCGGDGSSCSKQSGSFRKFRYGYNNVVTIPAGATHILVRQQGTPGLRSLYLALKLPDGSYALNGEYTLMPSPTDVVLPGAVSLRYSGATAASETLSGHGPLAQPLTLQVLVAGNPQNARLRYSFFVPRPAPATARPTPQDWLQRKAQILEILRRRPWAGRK
Procedure: as §4

[4] = Example 2 compound plasma concentration in osteoarthritis dogs (LC-MS/MS); format: in vivo, Beagle dogs
From the text: (§5) Blood samples for baseline plasma ARGN concentrations are collected from all dogs on 30, 28, and 26 days to prior to beginning dose administration. […] The 4 age matched control dogs without OA all are assigned to the placebo treatment group.

dog ADAMTS-4 [5] = target: T1, dog ADAMTS-4; test: Dog plasma shift AlphaScreen assay; format: biochemical; conditions: dog ADAMTS-4 in 25% dog plasma
Procedure: Rat and Dog Plasma Shift AlphaScreen Assay
The assay is completed in the same manner using 10 nM ADAMTS-5 instead of 2.1 nM. A similar assay is used with dog ADAMTS-4 in the presence of 25% dog plasma.

plasma ARGN = test: Plasma biomarker ARGN in osteoarthritis dogs; format: in vivo, Beagle dogs; conditions: OA dogs
From the text: Study of the Plasma Biomarker ARGN in Osteoarthritis Dogs
The objective of this study is to determine the plasma biomarker ARGN response in osteoarthritic (OA) dogs to a compound of the invention across a range of doses following daily oral administration for 21 days. Sixteen (16) adult laboratory Beagle dogs ≧8 years of age with radiographic evidence of OA in the hip joint(s) and 4 age matched control Beagle dogs without OA are enrolled in the study.
as §5

Sequence of MMP9 (P14780 94-707, species assumed): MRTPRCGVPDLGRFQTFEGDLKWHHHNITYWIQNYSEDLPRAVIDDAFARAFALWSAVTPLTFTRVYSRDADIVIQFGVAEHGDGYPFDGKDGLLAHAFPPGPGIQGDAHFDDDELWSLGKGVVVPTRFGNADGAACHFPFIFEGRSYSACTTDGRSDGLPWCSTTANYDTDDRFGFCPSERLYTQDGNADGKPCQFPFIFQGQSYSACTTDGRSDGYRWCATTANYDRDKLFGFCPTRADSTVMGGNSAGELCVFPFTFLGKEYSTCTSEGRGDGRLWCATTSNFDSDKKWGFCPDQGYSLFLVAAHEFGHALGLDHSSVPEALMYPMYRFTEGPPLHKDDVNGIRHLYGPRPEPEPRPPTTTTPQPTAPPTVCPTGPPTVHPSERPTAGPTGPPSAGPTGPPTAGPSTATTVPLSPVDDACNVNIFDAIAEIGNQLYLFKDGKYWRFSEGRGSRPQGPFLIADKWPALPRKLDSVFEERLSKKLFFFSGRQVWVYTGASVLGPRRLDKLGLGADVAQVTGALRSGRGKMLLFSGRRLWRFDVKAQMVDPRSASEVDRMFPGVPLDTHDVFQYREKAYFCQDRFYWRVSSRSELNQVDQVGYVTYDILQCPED

IC50 (MMP9) [µM] | IC50 [1] [µM] | IC50 (MMP7) [µM] | IC50 (MMP12) [µM] | IC50 (MMP8) [µM] | IC50 (MMP13) [µM] | IC50 (MMP-2) [µM] | IC50 (MMP3) [µM] | IC50 (ADAMTS-4) [µM] | IC50 (MMP1) [µM] | Compound | other results
12 | 3.89 | > 100 | 0.009 | 0.0179 | 1.11 | 1.75 | 2.85 |  |  | C[C@H](Cc1ccc(C(F)(F)F)cc1)C(=O)NC[C@@]1(C2CC2)NC(=O)NC1=O [Example 1, (2R)—N-[[(4R)-4-cyclopropyl-2,5-dioxo-imidazolidin-4-yl]methyl]-2-methyl-3-[4-(trifluoromethyl)phenyl]propanamide] | % Inhibition ([2]; 10 MPK oral): 41.3%; MIA (aggrecan fragments in synovial lavage of MIA knee) ([2]; 10 MPK oral): 15.87; % Inhibition ([2]; 30 MPK oral): 48.2%; MIA (aggrecan fragments in synovial lavage of MIA knee) ([2]; 30 MPK oral): 14.00; % Inhibition ([2]; 100 MPK oral): 70.2%; MIA (aggrecan fragments in synovial lavage of MIA knee) ([2]; 100 MPK oral): 8.06
> 100 | 50.2 | > 100 | 0.268 | 0.804 | 47 | 35 | 99.7 |  | 39.2 | O=C1NC(=O)[C@](CNC(=O)[C@@H](Cc2ccc(C(F)(F)F)cc2)C2CC2)(C2CC2)N1 [Example 3, (2S)-2-cyclopropyl-N-[[(4R)-4-cyclopropyl-2,5-dioxo-imidazolidin-4-yl]methyl]-3-[4-(trifluoromethyl)phenyl]propanamide] | 
> 100 | > 100 | > 100 | 3.37 | 5.22 | > 100 | > 100 | > 100 | 0.014 | 56.8 | CC(C)[C@H](Cc1ccc(C(F)(F)F)cc1)C(=O)NC[C@@]1(C2CC2)NC(=O)NC1=O [Example 4, (2S)—N-[[(4R)-4-cyclopropyl-2,5-dioxo-imidazolidin-4-yl]methyl]-3-methyl-2-[[4-(trifluoromethyl)phenyl]methyl]butanamide] | 

More lines, now with the values behind:

Compound | IC50 (MMP9) [µM] | IC50 [1] [µM] | IC50 (MMP7) [µM] | IC50 (MMP12) [µM] | IC50 (MMP8) [µM] | IC50 (MMP13) [µM] | IC50 (MMP-2) [µM] | IC50 (MMP3) [µM] | IC50 (ADAMTS-4) [µM] | IC50 (MMP1) [µM] | other results
CC(C)(Cc1ccc(C(F)(F)F)cc1)C(=O)NC[C@@]1(C2CC2)NC(=O)NC1=O [Example 5, N-[[(4R)-4-cyclopropyl-2,5-dioxoimidazolidin-4-yl]methyl]-2,2-dimethyl-3-[4-(trifluoromethyl)phenyl]propanamide] | 7.59 | 14.9 | > 100 | 0.071 | 0.054 | 4.81 | 4.65 | 13.2 | 0.007 | 4.55 | 
CC[C@H](Cc1ccc(C(F)(F)F)cc1)C(=O)NC[C@@]1(C2CC2)NC(=O)NC1=O [Example 2, (2R)—N-[[(4R)-4-cyclopropyl-2,5-dioxo-imidazolidin-4-yl]methyl]-2-[[4-(trifluoromethyl)phenyl]methyl]butanamide] | 0.439 | 7.99 | > 100 | 0.026 | < 0.0051 | 4.19 | 0.704 | 15.3 | 0.002 | 0.897 | IC50 (dog ADAMTS-4 [3]): 0.001 µM; plasma concentrations versus dosage ([4]; 0.1, 1, 10 mg/kg daily oral): increase with dosage in a sub-proportional manner; steady-state trough concentrations ([4]; daily oral dosing): rapidly achieved; IC50 (dog ADAMTS-4 [5]): 0.326 µM; mean Day 21 inhibition of plasma ARGN concentrations (plasma ARGN; 0.1 mg/kg daily oral): 33.8%; mean Day 21 inhibition of plasma ARGN concentrations (plasma ARGN; 1 mg/kg daily oral): 70.7%; mean Day 21 inhibition of plasma ARGN concentrations (plasma ARGN; 10 mg/kg daily oral): 80.3%
